Laboratory results published in patent US9988399B2, “Bicyclic compounds as ACC inhibitors and uses thereof” (Gilead Apollo, LLC, priority 2013, dated 2018).

Key:
ACC1 = ACC1 isolated from rat, mouse, monkey and human; cited from earlier work
ACC2 [1] = details: ACC2 isolated from rat, mouse, monkey and human; cited from earlier work
ACC2 [2] = target: ACC2 (Homo sapiens, UniProt O00763); experiment: in vitro ACC2 inhibition assay (ADP-Glo); type: biochemical; details: 5 nM ACC2, 20 μM ATP, 20 μM acetyl-CoA
Protocol: An exemplary procedure for the in vitro ACC inhibition assay, which can be used to determine the inhibitory action of compounds of the invention toward either ACCT or ACC2, follows. The ADP-Glo™ Kinase Assay kit from Promega is used. The ADP-Glo™ Kinase Assay is a luminescent ADP detection assay to measure enzymatic activity by quantifying the amount of ADP produced during an enzyme reaction. The assay is performed in two steps; first, after the enzyme reaction, an equal volume of ADP-Glo™ Reagent is added to terminate the reaction and deplete the remaining ATP. Second, the Kinase Detection Reagent is added to simultaneously convert ADP to ATP and allow the newly synthesized ATP to be measured using a luciferase/luciferin reaction. Luminescence can be correlated to ADP concentrations by using an ATP-to-ADP conversion curve. The detailed procedure is as follows. 50 μL of the compound being tested (600 uM in DMSO) is added to a 384-well dilution plate. The compound is diluted 1:3 in succession in DMSO for each row for 11 wells. […] is added to 384-well white Optiplate assay plate. 0.5 μL diluted compound solution in each column from step 2 is added to the assay plate, each row containing 2 replicates. For the last 2 rows, add 0.5 μL negative control (DMSO) in one row and 0.5 μL positive control (compound I-97) in the other. The plates are incubated at room temperature for 15 minutes. 5 μL substrate working solution is added to each well to initiate reaction. Final ACC2 reaction concentrations consist of: 5 nM ACC2, 20 μM ATP, 20 μM acetyl-CoA, 12 mM NaHCO3, 0.01% Brij35, 2 mM DTT, 5% DMSO, test compound concentrations: 30 μM, 10 μM, 3.33 μM, 1.11 μM, 0.37 μM, 0.123 μM, 0.0411 μM, 0.0137 μM, 0.00457 μM, 0.00152 μM, and 0.00051 μM. Plates are incubated at room temperature for 60 minutes. 10 μL ADP glo reagent is added. Plates are incubated at room temperature for 40 minutes. 20 μL kinase detection reagent is added. Plates are incubated at room temperature for 40 minutes, then read on a Perkin Elmer EnVision 2104 plate reader for luminescence as Relative Light Units (RLU).
Data for each concentration, as well as the positive and negative controls are averaged, and the standard deviation calculated. Percent inhibition is calculated by the formula: 100×(average negative control−compound)/(average negative control−average positive control). The IC50 for each compound is calculated by fitting the data with a non-linear regression equation: Y=Bottom+(Top-Bottom)/(1+10^((Log IC50−X)*HillSlope)), where X is the log of compound concentration and Y is percent inhibition.

Sequence of ACC2 (Homo sapiens, UniProt O00763) (O00763 whole entry, species assumed): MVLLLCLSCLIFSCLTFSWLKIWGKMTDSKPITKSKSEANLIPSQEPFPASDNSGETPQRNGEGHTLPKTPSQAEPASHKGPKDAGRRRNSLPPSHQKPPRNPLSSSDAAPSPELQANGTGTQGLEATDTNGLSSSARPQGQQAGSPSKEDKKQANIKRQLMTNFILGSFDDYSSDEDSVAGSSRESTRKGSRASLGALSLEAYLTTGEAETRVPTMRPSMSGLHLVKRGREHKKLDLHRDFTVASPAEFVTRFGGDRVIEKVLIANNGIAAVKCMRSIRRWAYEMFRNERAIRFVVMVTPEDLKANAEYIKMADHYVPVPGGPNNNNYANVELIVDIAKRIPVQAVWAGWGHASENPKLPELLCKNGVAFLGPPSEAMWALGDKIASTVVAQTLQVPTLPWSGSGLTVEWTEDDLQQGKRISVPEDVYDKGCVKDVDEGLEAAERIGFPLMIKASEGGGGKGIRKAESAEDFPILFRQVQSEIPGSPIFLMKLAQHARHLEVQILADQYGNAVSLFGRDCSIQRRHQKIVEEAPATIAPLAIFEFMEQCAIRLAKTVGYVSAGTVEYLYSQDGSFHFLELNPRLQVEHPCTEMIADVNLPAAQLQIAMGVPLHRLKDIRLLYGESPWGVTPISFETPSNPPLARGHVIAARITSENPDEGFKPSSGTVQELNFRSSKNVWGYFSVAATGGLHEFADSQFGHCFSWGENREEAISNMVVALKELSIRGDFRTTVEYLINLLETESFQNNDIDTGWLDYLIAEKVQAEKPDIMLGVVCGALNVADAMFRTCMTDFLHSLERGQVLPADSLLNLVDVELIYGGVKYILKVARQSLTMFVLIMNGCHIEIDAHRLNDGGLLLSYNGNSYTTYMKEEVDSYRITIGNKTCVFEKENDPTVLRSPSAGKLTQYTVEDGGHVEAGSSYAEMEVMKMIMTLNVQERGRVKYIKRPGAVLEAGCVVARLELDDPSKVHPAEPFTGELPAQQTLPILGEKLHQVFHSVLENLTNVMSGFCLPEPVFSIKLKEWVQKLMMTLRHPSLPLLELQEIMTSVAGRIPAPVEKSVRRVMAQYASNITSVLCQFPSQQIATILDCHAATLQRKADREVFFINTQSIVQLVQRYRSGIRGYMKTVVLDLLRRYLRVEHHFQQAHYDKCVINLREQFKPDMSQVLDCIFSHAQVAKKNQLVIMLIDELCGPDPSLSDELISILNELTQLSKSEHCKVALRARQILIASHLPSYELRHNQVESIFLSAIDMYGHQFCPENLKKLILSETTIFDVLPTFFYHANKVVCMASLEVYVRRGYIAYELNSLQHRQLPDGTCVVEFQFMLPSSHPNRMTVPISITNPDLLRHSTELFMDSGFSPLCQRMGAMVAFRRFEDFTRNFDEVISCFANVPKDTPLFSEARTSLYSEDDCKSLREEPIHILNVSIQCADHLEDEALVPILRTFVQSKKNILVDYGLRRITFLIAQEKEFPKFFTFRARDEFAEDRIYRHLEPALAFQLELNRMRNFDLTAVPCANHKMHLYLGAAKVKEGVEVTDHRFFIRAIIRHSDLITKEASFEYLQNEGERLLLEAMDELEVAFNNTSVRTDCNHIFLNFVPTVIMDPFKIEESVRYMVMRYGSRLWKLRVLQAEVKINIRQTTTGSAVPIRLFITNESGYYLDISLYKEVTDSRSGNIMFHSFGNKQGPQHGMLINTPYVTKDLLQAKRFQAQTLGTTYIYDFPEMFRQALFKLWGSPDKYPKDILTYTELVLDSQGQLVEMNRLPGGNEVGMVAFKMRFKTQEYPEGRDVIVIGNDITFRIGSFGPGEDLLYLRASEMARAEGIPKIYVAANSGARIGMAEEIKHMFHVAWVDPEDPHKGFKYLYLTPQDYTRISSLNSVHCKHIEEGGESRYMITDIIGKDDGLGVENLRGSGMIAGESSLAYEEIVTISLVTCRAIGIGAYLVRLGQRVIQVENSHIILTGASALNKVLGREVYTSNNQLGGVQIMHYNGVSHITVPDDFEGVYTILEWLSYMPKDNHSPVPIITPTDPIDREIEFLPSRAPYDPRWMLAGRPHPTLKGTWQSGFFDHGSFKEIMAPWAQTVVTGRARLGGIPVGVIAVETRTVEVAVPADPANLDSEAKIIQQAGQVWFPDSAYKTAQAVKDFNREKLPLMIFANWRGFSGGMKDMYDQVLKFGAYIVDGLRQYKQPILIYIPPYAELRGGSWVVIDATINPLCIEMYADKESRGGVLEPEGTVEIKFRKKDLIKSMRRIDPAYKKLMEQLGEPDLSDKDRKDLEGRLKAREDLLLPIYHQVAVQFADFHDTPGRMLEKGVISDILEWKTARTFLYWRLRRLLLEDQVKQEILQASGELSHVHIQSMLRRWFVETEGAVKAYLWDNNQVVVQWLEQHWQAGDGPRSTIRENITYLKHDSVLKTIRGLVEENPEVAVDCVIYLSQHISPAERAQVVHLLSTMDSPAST

Row | SMILES | IC50 (ACC2 [2]) | IC50 (ACC1) | IC50 (ACC2 [1])
1 | O=C(c1c2ccccc2cc2ccccc12)N1CCC(N2CCC[C@@H](C(=O)N3CCOCC3)C2)CC1 [CP-640186] |  | ~0.06 µM | ~0.06 µM
2 | COc1ccccc1CCc1cn(CC(=O)O)c(=O)c2c(C)c(-c3ncco3)sc12 [Compound I-33, 2-(7-(2-methoxyphenethyl)-3-methyl-2-(oxazol-2-yl)-4-oxothieno[3,2-c]pyridin-5(4H)-yl)acetic acid] | ≤ 1 µM |  | 

More lines, main results first:

Row | IC50 (ACC2 [2]) | SMILES | IC50 (ACC1) | IC50 (ACC2 [1])
3 | ≤ 1 µM | COc1ccccc1CCc1cn(CC(N)=O)c(=O)c2c(C)c(-c3ncco3)sc12 [Compound I-34, 2-(7-(2-methoxyphenethyl)-3-methyl-2-(oxazol-2-yl)-4-oxothieno[3,2-c]pyridin-5(4H)-yl)acetamide] |  | 
4 | 5 to 20 µM | COc1ccccc1CCn1c(=O)n(CC(=O)O)c(=O)c2nc(-c3ncco3)sc21 [Compound I-35, 2-(4-(2-methoxyphenethyl)-2-(oxazol-2-yl)-5,7-dioxo-4,5-dihydrothiazolo[5,4-d]pyrimidin-6(7H)-yl)acetic acid] |  | 
5 | 5 to 20 µM | COc1ccccc1CCn1c(=O)n(CC(=O)O)c(=O)c2c1nc(-c1ncco1)n2C [Compound I-36, 2-(3-(2-methoxyphenethyl)-7-methyl-8-(oxazol-2-yl)-2,6-dioxo-2,3,6,7-tetrahydro-1H-purin-1-yl)acetic acid] |  | 
